Assay results from ChEMBL document CHEMBL1136030, “Synthesis and antiaggregant properties of Stabilized analogues of polyunsaturated fatty acid metabolites” (Bioorg Med Chem Lett, 2002).

Legend:
Oryctolagus cuniculus = species on record: Oryctolagus cuniculus; experiment: Anti-platelet activity was measured by studying their antagonist effects on rabbit platelets aggregated with U-46,619.; type: functional
Homo sapiens = species on record: Homo sapiens; experiment: Anti-platelet activity was measured by studying their antagonist effects on human platelets aggregated with collagen; type: functional

| SMILES | IC50 (Oryctolagus cuniculus) | IC50 (Homo sapiens) |
| --- | --- | --- |
| CCCCCC(O)c1cccc(CCCCCC(=O)O)c1 (stereo not given) | 500 nM | 27000 nM |
| CCCCCC(=O)c1cccc(/C=C\CCCC(=O)O)c1 | 500 nM | 7000 nM |
| CCCCC/C=C\C[C@@H](O)/C=C/C=C\C/C=C\CCCC(=O)O | 4000 nM | – |
| O=C(O)CCn1c2c(c3ccccc31)CC(NS(=O)(=O)c1ccc(F)cc1)CC2 (single isomer, unassigned) [RAMATROBAN] | – | 50 nM |

Continued, values first:

| IC50 (Oryctolagus cuniculus) | IC50 (Homo sapiens) | SMILES |
| --- | --- | --- |
| 1600 nM | 57000 nM | CCCCCC(O)c1cccc(/C=C\CCCC(=O)O)n1 (stereo not given) |
| 900 nM | 20000 nM | CCCCCC(O)c1cccc(/C=C\CCCC(=O)O)c1 (stereo not given) |
